# According to US20250197387A1, “BCL-XL DEGRADERS AND USES THEREOF” (Kymera Therapeutics, Inc., priority 2021, published 2025):
# Columns and labels:
# Assay type in all cases: cell-based
# [1] = system: Caki-2 cells; assay: CTG (CellTiter-Glo) cell viability assay, Caki-2; details: Homo sapiens, 72 h, 3 day incubation, read-out: CTG Chempartner - Caki-2 3 day: Average external-IC50
# Procedure, shortened: (§1)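 Luminescence from CellTiter-Glo, read after 3 days of compound exposure at 37 °C, gave viability; IC50 values came from three-parameter logistic curves. Cells were plated at 10,000 per well and dosed over nine 1:3 steps topping at 10 μM.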
# [2] = system: MOLT-4 cells; assay: CTG (CellTiter-Glo) cell viability assay, MOLT-4; details: Homo sapiens, MOLT-4, 72 h, 3 day incubation, read-out: CTG Cell Viability Assay - MOLT-4 3 day: Average external-IC50
# Procedure, shortened: as §1
# [3] = target: T1, BCL-XL (Homo sapiens, UniProt Q07817); assay: Bcl-xL ELISA degradation in MOLT-4 cells, 6 h; details: for DC50: read-out: Bcl-xL ELISA in MOLT-4 degradation 6 h: Mean external-Abs DC50
# T1 construct: endogenous in cells; host or cells: MOLT-4
# Experimental: The letter codes for BCL-XL DC50 include: A (<0.01 μM); B (0.01-0.1 μM); C (>[…]); D (>0.5-1.0 μM); and E (>1.0 μM). The letter codes for Dmax % include A (>75%); B (50 to 75%); C (<50%).
# [4] = target: T1, BCL-XL; assay: BCL-XL degradation assay, western blot in MOLT-4 cells, 16 h; details: western blot, MOLT-4 cells, 16 h; for Dmax: read-out: Bcl-xL WB in MOLT-4 degradation 16 h: Average Dmax %; for DC50: read-out: Bcl-xL WB in MOLT-4 degradation 16 h: Mean external-Abs DC50
# Procedure, shortened: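 MOLT-4 cells treated with compounds at 0.02-10 μM final for 16 hr at 37° C; lysates analysed by western blot with anti-BCL-xL, beta-actin and GAPDH loading controls, infrared imaging and densitometry; DC50 and Dmax % reported as letter codes.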
# T1 sequence (Q07817 whole entry): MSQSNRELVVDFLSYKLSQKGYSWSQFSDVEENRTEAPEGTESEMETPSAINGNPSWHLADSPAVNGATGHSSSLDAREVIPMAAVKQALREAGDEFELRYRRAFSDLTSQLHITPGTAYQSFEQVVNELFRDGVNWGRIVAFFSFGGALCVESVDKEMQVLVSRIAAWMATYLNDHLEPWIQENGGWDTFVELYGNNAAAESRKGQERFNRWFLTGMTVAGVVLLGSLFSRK
Structure (SMILES),IC50 [1],IC50 [2],Dmax [3],DC50 [3],Dmax [4],DC50 [4]
Cc1ncsc1-c1ccc([C@H](C)NC(=O)[C@@H]2C[C@@H](O)CN2C(=O)[C@@H](NC(=O)CCCCCCC(=O)N2CCN(CC3(C)CCC(c4ccc(Cl)cc4)=C(CN4CCN(c5ccc(C(=O)NS(=O)(=O)c6ccc(N[C@H](CCN7CCOCC7)CSc7ccccc7)c(S(=O)(=O)C(F)(F)F)c6)cc5)CC4)C3)CC2)C(C)(C)C)cc1 (stereo partly drawn) [I-395],100 to 1000 nM,< 100 nM,< 50%,10 to 100 nM,> 75%,< 10 nM
Cc1ncsc1-c1ccc([C@H](C)NC(=O)[C@@H]2C[C@@H](O)CN2C(=O)[C@@H](NC(=O)CCCCCCC(=O)N2CCN(C[C@]3(C)CCC(c4ccc(Cl)cc4)=C(CN4CCN(c5ccc(C(=O)NS(=O)(=O)c6ccc(N[C@H](CCN7CCOCC7)CSc7ccccc7)c(S(=O)(=O)C(F)(F)F)c6)cc5)CC4)C3)CC2)C(C)(C)C)cc1 [I-397],100 to 1000 nM,< 100 nM,50 to 75%,10 to 100 nM,> 75%,< 10 nM
